Measured values from patent publication US20150051210A1, “Tyrosine Kinase Inhibitor Combinations and their Use” (Novartis AG, priority 2012, published 2015).

Legend:
RT-112 cells = experiment: RT-112 Dual Inhibition: reversal of rescue with selective inhibitors, CellTiter-Glo cell viability; format: cell-based; conditions: RT-112, rhHGF or rhNRG-1 250 ng/ml, 96 h; BGJ398 100 nM, Cpd. A/Cpd. B 500 nM, Lapatinib 1.5 μM; FIG. 5, FIG. 6
Procedure: RT-112 Secretome screen: The basic format was identical to the MKN-45 secretome screen with slight modifications. RT-112 cells were plated in EMEM+10% in white, tissue-culture treated 384-well plates at 1000 cells/20 μl/well and allowed to attach overnight. Supernatant from library-transfected HEK293T/17 cells was transferred as described above for the MKN-45 secretome screen. Purified proteins rhNRG1-31 and rhTGFα were added as positive controls, at a final concentration of 150 ng/ml. Following addition of supernatants and purified protein controls, BGJ398 diluted in DMEM was added at 10 μl/well for a final assay concentration of 100 nM. Cell viability was measured after 72 hours using CellTiter-Glo as described above. (FIG. 2)
RT-112 Dual Inhibition: The format for the RT-112 dual inhibition experiment was similar to that described for MKN-45 with the following modifications. RT-112 cells were plated at 1000 cells/20 μl/well. Solutions of rhHGF and rhNRG-1 were added to achieve a final concentration of 250 ng/ml. Single and dual inhibition conditions were prepared as follows: BGJ398, Cpd. A, Cpd. B, Lapatinib, BGJ398 and Cpd. A, BGJ398 and Cpd. B, BGJ398 and Lapatinib. Final concentrations for each compound, whether single or combined, were as follows: 100nM for BGJ398, 500 nM for Cpd. A and Cpd. B, and 1.5 μM for Lapatinib. After 96 hours cell viability was measured by CellTiter-Glo as previously described. (FIG. 5, FIG. 6).

MG-63 cells = experiment: Combination assay (concentration matrix, resazurin, Loewe synergy) in MG-63; format: cell-based; conditions: MG-63, semi-solid media
Procedure: Combinatorial anti-proliferative effects of Cpd. B (“B) in the tables below) and BGJ398 (“C” in the tables below) were measured in KYM-1, MG-63, and Hs-683 cells on 96-well-plates using the concentration matrix depicted below:
Cells were grown under three different conditions (see FIG. 7): Experiments labeled “monolayer” were conducted on regular tissue culture plates, allowing cells to adhere and eventually form a monolayer. Cells were seeded on 3 plates per experiment (triplicates) in standard growth media as described above at a density of 5000 per well. Six to eight wells on a separate plate were seeded to quantify the amount of viable cells at the point of compound addition. […] At the same time, viable cells on the separate plate mentioned above were quantified using a resazurin sodium salt dye reduction readout. […] Quantification of Synergy was done using the methods described in G. R. Zimmermann et al., Drug Discovery Today, Vol. 12, No. ½, 2007, pages 34 to 42, and especially J. Lehár et al., Nature Biotechnology Vol. 27, No. 7, 2009, pages 659 to 666, in short by iteratively calculating the Loewe additive response ILoewe (X, Y) at each dose matrix point from the single-agent response curves, and then summing the differences between ILoewe and the experimental data. […]

Structure (SMILES)	activity on cell viability (reversal of rescue) (RT-112 cells)	growth inhibition (MG-63 cells)
CNC(=O)c1ccc(-c2cnc3ncc(Cc4ccc5ncccc5c4)n3n2)cc1F [Cpd. B, 2-fluoro-N-methyl-4-[(7-quinolin-6-yl-methyl)-imidazo[1,2-b]triazin-2-yl]benzamide]	not sufficient	
CCN1CCN(c2ccc(Nc3cc(N(C)C(=O)Nc4c(Cl)c(OC)cc(OC)c4Cl)ncn3)cc2)CC1 [BGJ398, 3-(2,6-dichloro-3,5-dimethoxy-phenyl)-1-{6-[4-(4-ethylpiperazin-1-yl)-phenylamino]-pyrimidin-4-yl}-1-methyl-urea]	active	strong growth inhibition
